Measurements published in patent US7507421B2, “Hydroxycitric acid salt composition and method of making” (Unibar Corporation, priority 2002, dated 2009).

Columns and labels:
[1] = system: adult female Wistar rats; assay: Acute Oral Toxicity (OECD Test Guideline 425), LD50; format: in vivo; set-up: key to Short-term Result / Long-term Result: X = Died; ◯ = Survived; conditions: for LD50: oral, female Wistar rats
Protocol: A representative lot of powder obtained as described above is a pure, stable calcium potassium salt of hydroxycitric acid having a proximate analysis of 70 to 75% hydroxycitric acid, 7.5% to 9.5% calcium, 12 to 15% potassium and 3 to 5% structural moisture. The sodium content is less than 0.5%, and HCA lactone content is less than 0.5%. An animal toxicity study was conducted on the product to establish its LD50.
Doses were selected in accordance with the Acute Oral Toxicity (OECD Test Guideline 425) Statistical Program as follows: 175, 550, 1750, 5000 mg/kg of body weight in adult female Wistar rats.

[2] = Accelerated storage study of aqueous solution; format: physicochemical; conditions: 5 g in 100 ml de-ionized sterile water, accelerated storage study chamber, 2 months
Protocol: 50 g equivalent of the hydroxy citric acid—potassium salt solution from Example 2 was taken into a glass beaker fitted with a stirring arrangement. To this solution, 43 g of the dried calcium salt from Example 1 was added and the mixture was stirred to yield a clear solution. The resultant solution was spray dried to yield a salt of hydroxycitric acid with the following analysis: potassium content 11% to 18%, calcium content 5% to 12%, structural moisture 3% to 5% and hydroxycitric acid content 70% to 76%. The sodium content was less than 0.5% and lactone less than 0.5%. The combined salt has a solubility of 5 g in 100 mL of deionized water at room temperature. This salt composition is tasteless and white in color. A solution of 5 g in 100 ml of de-ionized sterile water was subjected to an accelerated storage study chamber for 2 months.

[3] = Solubility in water; format: physicochemical; conditions: deionized water at room temperature
Protocol: The resultant solution was spray dried to yield a salt of hydroxycitric acid with the following analysis: potassium content 11% to 18%, calcium content 5% to 12%, structural moisture 3% to 5% and hydroxycitric acid content 70% to 76%. The sodium content was less than 0.5% and lactone less than 0.5%. […] This salt composition is tasteless and white in color. A solution of 5 g in 100 ml of de-ionized sterile water was subjected to an accelerated storage study chamber for 2 months.

[4] = system: adult female Wistar rats; assay: Acute Oral Toxicity (OECD Test Guideline 425), LD50; format: in vivo; set-up: key: X = Died; ◯ = Survived; conditions: dose 2000 mg/kg, single animal
[5] = dose 5000 mg/kg, one line per animal

Combined Potassium-Calcium Salts of Hydroxycitric Acid [Example 3]
Died (long-term, number of animals) ([1]; All Doses, total 6): 0 | Survived (long-term, number of animals) ([1]; All Doses, total 6): 6 | Long-term Result ([1]; dose 175 mg/kg, single animal): ◯ | Short-term Result ([1]; dose 175 mg/kg, single animal): ◯ | Died (long-term, number of animals) ([1]; dose 175 mg/kg, total 1): 0 | Survived (long-term, number of animals) ([1]; dose 175 mg/kg, total 1): 1 | Long-term Result ([1]; dose 550 mg/kg, single animal): ◯ | Short-term Result ([1]; dose 550 mg/kg, single animal): ◯ | Died (long-term, number of animals) ([1]; dose 550 mg/kg, total 1): 0 | Survived (long-term, number of animals) ([1]; dose 550 mg/kg, total 1): 1 | Died (long-term, number of animals) ([1]; dose 2000 mg/kg, total 1): 0 | Survived (long-term, number of animals) ([1]; dose 2000 mg/kg, total 1): 1 | Long-term Result [1, 5]: ◯ | Short-term Result [1, 5]: ◯ | Died (long-term, number of animals) ([1]; dose 5000 mg/kg, total 3): 0 | Survived (long-term, number of animals) ([1]; dose 5000 mg/kg, total 3): 3 | LD50 [1]: more than 5 gm/kg | LD50 ([1]; conclusion of Table 8): Conclusion: LD50 of a sample of the Test Compound was found to be greater than 5000 mg/kg. | clarity of solution after storage [2]: retained its clarity | precipitation of salt after storage of solution [2]: did not precipitate out | solubility [3]: 5 g in 100 mL | Long-term Result [4]: ◯ | Short-term Result [4]: ◯
